Measured values taken from ChEMBL document CHEMBL6134905, “Double Swords in One: Novel Selective PI3K/110β PROTAC Degraders for the Treatment of Multidrug-Resistant Cancer by Activating ERS and Inhibiting P-gp” (J Med Chem, 2025).
Activity calls are given as the source filed them. The calls are words filed in the database; no cut-off is given here.

What was measured:
[1] = biological target: T1, von Hippel-Lindau disease tumor suppressor/Phosphatidylinositol 4,5-bisphosphate 3-kinase catalytic subunit beta isoform (Homo sapiens, UniProt P42338+P40337); assay: PROTAC activity at PI3K-p110beta/VHL in human A549/DDP cells assessed as induction of PI3K-p110beta degradation incubated for 24 hrs by Western blot analysis; format: cell-based; details: dose 0.04-50 µM
Target sequence in this assay (P40337 whole entry, looked up, canonical isoform): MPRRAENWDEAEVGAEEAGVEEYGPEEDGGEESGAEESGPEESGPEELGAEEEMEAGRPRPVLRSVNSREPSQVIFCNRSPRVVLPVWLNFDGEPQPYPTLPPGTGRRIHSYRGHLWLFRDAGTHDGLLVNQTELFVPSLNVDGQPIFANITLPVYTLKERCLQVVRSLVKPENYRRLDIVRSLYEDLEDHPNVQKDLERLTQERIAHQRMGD
Target sequence in this assay (P42338 whole entry, looked up, canonical isoform): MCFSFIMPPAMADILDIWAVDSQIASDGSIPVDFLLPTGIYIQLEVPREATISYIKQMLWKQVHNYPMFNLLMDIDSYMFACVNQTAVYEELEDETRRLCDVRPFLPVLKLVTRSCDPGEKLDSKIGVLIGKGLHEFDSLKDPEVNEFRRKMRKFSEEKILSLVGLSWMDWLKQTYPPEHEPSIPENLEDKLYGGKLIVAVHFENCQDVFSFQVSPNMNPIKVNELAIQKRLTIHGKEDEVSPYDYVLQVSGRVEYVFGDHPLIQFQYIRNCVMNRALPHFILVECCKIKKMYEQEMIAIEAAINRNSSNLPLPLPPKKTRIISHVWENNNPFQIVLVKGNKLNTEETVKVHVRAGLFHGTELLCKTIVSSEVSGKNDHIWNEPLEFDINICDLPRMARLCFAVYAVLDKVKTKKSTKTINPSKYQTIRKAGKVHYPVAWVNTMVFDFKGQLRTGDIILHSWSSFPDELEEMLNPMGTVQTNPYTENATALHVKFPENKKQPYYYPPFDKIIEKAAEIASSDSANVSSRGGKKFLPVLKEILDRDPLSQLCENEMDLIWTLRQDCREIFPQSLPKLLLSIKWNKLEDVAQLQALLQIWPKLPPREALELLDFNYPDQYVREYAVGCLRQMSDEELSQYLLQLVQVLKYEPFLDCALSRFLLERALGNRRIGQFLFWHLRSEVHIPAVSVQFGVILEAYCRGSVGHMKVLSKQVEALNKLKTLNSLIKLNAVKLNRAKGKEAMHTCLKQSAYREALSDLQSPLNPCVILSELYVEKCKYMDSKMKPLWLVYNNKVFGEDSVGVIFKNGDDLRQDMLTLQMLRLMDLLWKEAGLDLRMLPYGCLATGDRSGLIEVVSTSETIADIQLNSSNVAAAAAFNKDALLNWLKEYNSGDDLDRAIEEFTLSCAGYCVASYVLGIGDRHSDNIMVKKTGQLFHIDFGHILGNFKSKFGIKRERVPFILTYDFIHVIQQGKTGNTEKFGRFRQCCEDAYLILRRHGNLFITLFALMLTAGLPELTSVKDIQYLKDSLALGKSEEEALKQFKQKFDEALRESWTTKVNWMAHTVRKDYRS

[2] = biological target: T1, von Hippel-Lindau disease tumor suppressor/Phosphatidylinositol 4,5-bisphosphate 3-kinase catalytic subunit beta isoform; assay: PROTAC activity at PI3K-p110beta/VHL in human A549/DDP cells assessed as reduction in PI3K-p110beta level incubated for 24 hrs by Western blot analysis; format: cell-based
[3] = biological target: T1, von Hippel-Lindau disease tumor suppressor/Phosphatidylinositol 4,5-bisphosphate 3-kinase catalytic subunit beta isoform; assay: PROTAC activity at PI3K-p110beta/VHL in human MCF7/ADM cells assessed as reduction in PI3K-p110beta level by Western blot analysis; format: cell-based; details: time <= 48.0 hrs
Target sequence in this assay (P40337 whole entry, looked up, canonical isoform): as the sequence (P40337 whole entry, looked up, canonical isoform) above
Target sequence in this assay (P42338 whole entry, looked up, canonical isoform): as the sequence (P42338 whole entry, looked up, canonical isoform) above

[4] = biological target: T1, von Hippel-Lindau disease tumor suppressor/Phosphatidylinositol 4,5-bisphosphate 3-kinase catalytic subunit beta isoform; assay: PROTAC activity at PI3K-p110beta/VHL in human A549/DDP cells assessed as reduction in PI3K-p110beta level by Western blot analysis; format: cell-based; details: time <= 48.0 hrs
Target sequence in this assay (P40337 whole entry, looked up, canonical isoform): as the sequence (P40337 whole entry, looked up, canonical isoform) above
Target sequence in this assay (P42338 whole entry, looked up, canonical isoform): as the sequence (P42338 whole entry, looked up, canonical isoform) above

[5] = biological target: T1, von Hippel-Lindau disease tumor suppressor/Phosphatidylinositol 4,5-bisphosphate 3-kinase catalytic subunit beta isoform; assay: PROTAC activity at PI3K-p110beta/VHL in human MCF7/ADM cells assessed as induction of PI3K-p110beta degradation at 25 uM measured for 24 hrs in presence of VHL ligand by Western blot analysis; format: cell-based
Target sequence in this assay (P40337 whole entry, looked up, canonical isoform): as the sequence (P40337 whole entry, looked up, canonical isoform) above
Target sequence in this assay (P42338 whole entry, looked up, canonical isoform): as the sequence (P42338 whole entry, looked up, canonical isoform) above

[6] = biological target: T1, von Hippel-Lindau disease tumor suppressor/Phosphatidylinositol 4,5-bisphosphate 3-kinase catalytic subunit beta isoform; assay: PROTAC activity at PI3K-p110beta/VHL in human MCF7/ADM cells assessed as induction of PI3K-p110beta degradation at 25 uM measured for 24 hrs in presence of TGX221 by Western blot analysis; format: cell-based
Target sequence in this assay (P40337 whole entry, looked up, canonical isoform): as the sequence (P40337 whole entry, looked up, canonical isoform) above
Target sequence in this assay (P42338 whole entry, looked up, canonical isoform): as the sequence (P42338 whole entry, looked up, canonical isoform) above

[7] = biological target: T1, von Hippel-Lindau disease tumor suppressor/Phosphatidylinositol 4,5-bisphosphate 3-kinase catalytic subunit beta isoform; assay: PROTAC activity at PI3K-p110beta/VHL in human A549/DDP cells assessed as induction of PI3K-p110beta degradation at 25 uM measured for 24 hrs in presence of TGX221 by Western blot analysis; format: cell-based
Target sequence in this assay (P40337 whole entry, looked up, canonical isoform): as the sequence (P40337 whole entry, looked up, canonical isoform) above
Target sequence in this assay (P42338 whole entry, looked up, canonical isoform): as the sequence (P42338 whole entry, looked up, canonical isoform) above

[8] = biological target: T1, von Hippel-Lindau disease tumor suppressor/Phosphatidylinositol 4,5-bisphosphate 3-kinase catalytic subunit beta isoform; assay: PROTAC activity at PI3K-p110beta/VHL in human MCF7/ADM cells assessed as reduction in PI3K-p110beta level at 25 uM measured for 24 hrs by Western blot analysis; format: cell-based
A549 = assay: Antitumor activity against human A549 cells assessed as cell viability incubated for 24 hrs by MTT assay; format: functional, cell-based; details: A549, 24 h
MCF7 = assay: Antitumor activity against human MCF7 cells assessed as cell viability incubated for 24 hrs by MTT assay; format: functional, cell-based; details: MCF7, 24 h
Mitochondrial membrane = assay: Induction of mitochondrial membrane potential loss in human MCF7/ADM cells assessed as increase in green fluorescence at 25 uM incubated for 48 hrs by JC-1 staining based flow cytometry
A549/CDDP [9] = assay: Upregulation of PTEN expression in human A549/DDP cells at 25 uM incubated for 24 hrs by Western blot analysis; format: functional, cell-based
MCF7/ADM [10] = assay: Upregulation of PTEN expression in human MCF7/ADM cells at 25 uM incubated for 24 hrs by Western blot analysis; format: functional, cell-based
MCF7/ADM [11] = assay: Induction of apoptosis in human MCF7/ADM cells assessed as decrease in bcl-2 expression at 12.5 uM incubated for 24 hrs by Western blot analysis; format: functional, cell-based
A549/CDDP [12] = assay: Induction of apoptosis in human A549/DDP cells assessed as decrease in bax expression at 12.5 uM incubated for 24 hrs by Western blot analysis; format: functional, cell-based
A549/CDDP [13] = assay: Induction of apoptosis in human A549/DDP cells assessed as increase in cleaved caspase-9 expression at 12.5 uM incubated for 24 hrs by Western blot analysis; format: functional, cell-based
MCF7/ADM [14] = assay: Induction of apoptosis in human MCF7/ADM cells assessed as increase in cleaved caspase-9 expression at 12.5 uM incubated for 24 hrs by Western blot analysis; format: functional, cell-based
A549/CDDP [15] = assay: Induction of apoptosis in human A549/DDP cells assessed as increase in cleaved caspase-8 expression at 12.5 uM incubated for 24 hrs by Western blot analysis; format: functional, cell-based
A549/CDDP [16] = assay: Induction of apoptosis in human A549/DDP cells assessed as increase in caspase-8 expression at 12.5 uM incubated for 24 hrs by Western blot analysis; format: functional, cell-based
A549/CDDP [17] = assay: Activation of unfolded protein response in human A549/DDP cells at 25 uM incubated for 24 hrs by PROTEOSTATR aggresome dye based fluorescent microscopy; format: functional, cell-based
A549/CDDP [18] = assay: Upregulation of PERK expression in human A549/DDP cells at 0.25 to 25 uM incubated for 24 hrs by Western blot analysis; format: functional, cell-based; details: dose 0.25-25 µM
A549/CDDP [19] = assay: Upregulation of ATF6 expression in human A549/DDP cells at 0.25 to 25 uM incubated for 24 hrs by Western blot analysis; format: functional, cell-based; details: dose 0.25-25 µM
A549/CDDP [20] = assay: Downregulation of p-gp level in human A549/DDP cells at 6.25 to 25 uM incubated for 24 hrs; format: functional, cell-based; details: dose 6.25-25 µM
MCF7/ADM [21] = assay: Downregulation of p-gp level in human MCF7/ADM cells at 6.25 to 25 uM incubated for 24 hrs; format: functional, cell-based; details: dose 6.25-25 µM
MCF7/ADM [22] = assay: Antitumor activity against human MCF7/ADM cells xenografted in BALB/c mouse assessed as downregulation of p110beta level in tumor at 50 mg/kg, ip; format: functional, organism-based
MCF7/ADM [23] = assay: Antitumor activity against human MCF7/ADM cells xenografted in BALB/c mouse assessed as increase in GRP78 expression in tumor at 50 mg/kg, ip by Western blot analysis; format: functional, organism-based
MCF7/ADM [24] = assay: Antitumor activity against human MCF7/ADM cells xenografted in BALB/c mouse assessed as increase in pIRE1 expression in tumor at 50 mg/kg, ip by Western blot analysis; format: functional, organism-based
MCF7/ADM [25] = assay: Antitumor activity against human MCF7/ADM cells xenografted in BALB/c mouse assessed as decrease in bcl-2 expression in tumor at 50 mg/kg, ip by Western blot analysis; format: functional, organism-based
MCF7/ADM [26] = assay: Antitumor activity against human MCF7/ADM cells xenografted in BALB/c mouse assessed as reduction in AKT expression in tumor at 50 mg/kg, ip by Western blot analysis; format: functional, organism-based
MCF7/ADM [27] = assay: Antitumor activity against human MCF7/ADM cells xenografted in BALB/c mouse assessed as effect on PTEN expression in tumor at 50 mg/kg, ip by Western blot analysis; format: functional, organism-based
MCF7/ADM [28] = assay: Antitumor activity against human MCF7/ADM cells xenografted in BALB/c mouse assessed as reduction in p-gp expression in tumor at 50 mg/kg, ip by Western blot analysis; format: functional, organism-based
[29] = Toxicity in BALB/c mouse xenografted with human MCF7/ADM cells assessed as heart damage at 50 mg/kg, ip by H and E staining based analysis; format: organism-based; details: in vivo
[30] = Toxicity in BALB/c mouse xenografted with human MCF7/ADM cells assessed as change in WBC count at 50 mg/kg, ip; format: organism-based; details: in vivo
[31] = Toxicity in BALB/c mouse xenografted with human MCF7/ADM cells assessed as change in HGB level at 50 mg/kg, ip; format: organism-based; details: in vivo
[32] = Toxicity in BALB/c mouse xenografted with human MCF7/ADM cells assessed as change in AST level at 50 mg/kg, ip; format: organism-based; details: in vivo
[33] = Toxicity in BALB/c mouse xenografted with human MCF7/ADM cells assessed as change in creatinine level at 50 mg/kg, ip; format: organism-based; details: in vivo

Compound | Activity [1] | Activity [3] | Activity [4] | Activity [5] | Activity [6] | Activity [7] | Activity [8] | IC50 (A549) | IC50 (MCF7) | Activity (Mitochondrial membrane) | Activity (A549/CDDP [9]) | Activity (MCF7/ADM [10]) | Activity (MCF7/ADM [11]) | Activity (A549/CDDP [12]) | Activity (A549/CDDP [13]) | Activity (MCF7/ADM [14]) | Activity (A549/CDDP [15]) | Activity (A549/CDDP [16]) | Activity (A549/CDDP [17]) | Activity (A549/CDDP [18]) | other results
Cc1cc(C(C)Nc2ccccc2C(=O)NCCOCCOCCC(=O)N[C@H](C(=O)N2C[C@H](O)C[C@H]2C(=O)NCc2ccc(-c3scnc3C)cc2)C(C)(C)C)c2nc(N3CCOCC3)cc(=O)n2c1 (some centres not stated) | Dose-dependent-effect | Time-dependent-effect | Time-dependent-effect | Active | inactive | inactive | Active | 75.3 µM | 33.9 µM | Active | Active | Active | Active | Active | Active | Active | Active | Active | Active | Active | Activity ([2]; dose 0.04-50 µM): Dose-dependent-effect; Activity (A549/CDDP [19]): Active; Activity (A549/CDDP [20]): Active; Activity (MCF7/ADM [21]): Active; Activity (MCF7/ADM [22]): Active; Activity (MCF7/ADM [23]): Active; Activity (MCF7/ADM [24]): Active; Activity (MCF7/ADM [25]): Active; Activity (MCF7/ADM [26]): Active; Activity (MCF7/ADM [27]): inactive; Activity (MCF7/ADM [28]): Active; Activity [29]: Non-toxic; Activity [30]: Non-toxic; Activity [31]: Non-toxic; Activity [32]: Non-toxic; Activity [33]: Non-toxic
Cc1cc(C(C)Nc2ccccc2C(=O)NCCCCCCC(=O)N[C@H](C(=O)N2C[C@H](O)C[C@H]2C(=O)NCc2ccc(-c3scnc3C)cc2)C(C)(C)C)c2nc(N3CCOCC3)cc(=O)n2c1 (some centres not stated) | Dose-dependent-effect | Time-dependent-effect | Time-dependent-effect | Active | inactive | inactive | Active | 85.2 µM | 54 µM | Active | Active | Active | Active | Active | Active | Active | Active | Active | Active | Active | DC50 [2]: 2.19 µM; Activity (A549/CDDP [19]): Active; Activity (A549/CDDP [20]): Active; Activity (MCF7/ADM [21]): Active; Activity (MCF7/ADM [22]): Active; Activity (MCF7/ADM [23]): Active; Activity (MCF7/ADM [24]): Active; Activity (MCF7/ADM [25]): Active; Activity (MCF7/ADM [26]): Active; Activity (MCF7/ADM [27]): inactive; Activity (MCF7/ADM [28]): Active; Activity [29]: Non-toxic; Activity [30]: Non-toxic; Activity [31]: Non-toxic; Activity [32]: Non-toxic; Activity [33]: Non-toxic
